Experimental data from patent publication US10597388B2, “Pyridazinone herbicides” (FMC CORPORATION, priority 2014, dated 2020).

Columns and labels:
Test in all cases: Test E greenhouse herbicide test, pre- and postemergence
Type in all cases: in vivo
[1] = tested on: ragweed (common ragweed, Ambrosia elatior); conditions: Preemergence
Procedure, shortened: (§1)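 Pre- and postemergence sprays, same solvent–surfactant formulation. Substrate: silt loam (pre), peat-based mix (post, 1–4 leaf, 2–18 cm). Readout: visual control rating 0–100 against controls at 14–21 d.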

[2] = tested on: barnyardgrass (Echinochloa crus-galli)
Procedure, shortened: as §1

[3] = tested on: sandbur (southem sandbur, Cenchrus echinatus)
Procedure, shortened: as §1

[4] = tested on: goosegrass (Eleusine indica); conditions: Preemergence
Procedure, shortened: as §1

[5] = tested on: foxtail, giant (giant foxtail, Setaria faberii); conditions: Preemergence
Procedure, shortened: as §1

[6] = tested on: lambsquarters (Chenopodium album); conditions: Preemergence
Procedure, shortened: as §1

[7] = tested on: panicum, fall (fall panicum, Panicum dichotomiflorum)
Procedure, shortened: as §1

corn (Zea mays) = tested on: corn (Zea mays)
Procedure, shortened: as §1

[8] = tested on: nightshade (eastern black nightshade, Solanum ptycanthum); conditions: Preemergence
Procedure, shortened: as §1

[9] = tested on: surinam grass (Brachiaria decumbens); conditions: Preemergence
Procedure, shortened: as §1

[10] = tested on: pigweed, palmer (palmer pigweed, Amaranthus palmeri)
Procedure, shortened: as §1

[11] = tested on: dayflower (Virginia (VA) dayflower, Commelina virginica)
Procedure, shortened: as §1

[12] = tested on: momingglory (Ipomoea coccinea); conditions: Preemergence
Procedure, shortened: as §1

[13] = tested on: velvetleaf (Abutilon theophrasti); conditions: Preemergence
Procedure, shortened: as §1

[14] = tested on: arrowleaf sida (Sida rhombifolia)
Procedure, shortened: as §1

[15] = tested on: crabgrass, large (large crabgrass, Digitaria sanguinalis); conditions: Preemergence
Procedure, shortened: as §1

[16] = 62 g ai/ha, scale 0 to 100 (0 no effect, 100 complete control)
[17] = 125 g ai/ha, scale 0 to 100 (0 no effect, 100 complete control)
[18] = 16 g ai/ha, scale 0 to 100, 0 no effect, 100 complete control
[19] = 31 g ai/ha, scale 0 to 100, 0 no effect, 100 complete control
[20] = 250 g ai/ha, visual, scale 0 no effect to 100 complete control
[21] = 62 g ai/ha, Postemergence, scale 0 to 100 (0 no effect, 100 complete control)
[22] = 62 g ai/ha, Preemergence, scale 0 to 100 (0 no effect, 100 complete control)
[23] = 125 g ai/ha, Postemergence, scale 0 to 100 (0 no effect, 100 complete control)
[24] = 250 g ai/ha, Postemergence, scale 0 to 100 (0 no effect, 100 complete control)
[25] = Postemergence, 16 g ai/ha, visual, scale 0 no effect to 100 complete control
[26] = Postemergence, 31 g ai/ha, visual, scale 0 no effect to 100 complete control
[27] = Preemergence, 16 g ai/ha, scale 0 to 100, 0 no effect, 100 complete control
[28] = Preemergence, 31 g ai/ha, scale 0 to 100, 0 no effect, 100 complete control
[29] = Preemergence, 125 g ai/ha, visual, scale 0 no effect to 100 complete control
[30] = Preemergence, 250 g ai/ha, visual, scale 0 no effect to 100 complete control
[31] = 125 g ai/ha, Preemergence, scale 0 to 100 (0 no effect, 100 complete control)
[32] = 125 g ai/ha, visual, scale 0 no effect to 100 complete control

Cc1ccc2sc(C)c(-c3c(O)c(C)nn(C)c3=O)c2c1 [Compound 1, 4-(2,5-dimethylbenzo[b]thien-3-yl)-5-hydroxy-2,6-dimethyl-3(2H)-pyridazinone]
50: Plant response rating, Foxtail, Giant [5, 19] | Plant response rating, Surinam Grass [9, 16] | Plant response rating, Dayflower, VA [11, 24] | Plant response rating, Arrowleaf Sida [14, 26]
90: Plant response rating, Panicum, Fall [7, 22] | Plant response rating, Nightshade [8, 19] | Plant response rating, Pigweed, Palmer [10, 21] | Plant response rating, Pigweed, Palmer [10, 28] | Plant response rating, Morningglory [12, 17] | Plant response rating, Velvetleaf [13, 17]
98: Plant response rating, Foxtail, Giant [5, 20] | Plant response rating, Lambsquarters [6, 16] | Plant response rating, Pigweed, Palmer [10, 24] | Plant response rating, Morningglory [12, 16] | Plant response rating, Velvetleaf [13, 20]
35: Plant response rating, Ragweed [1, 18] | Plant response rating, Barnyardgrass [2, 24] | Plant response rating, Goosegrass [4, 32] | Plant response rating, Foxtail, Giant [5, 16] | Plant response rating, Velvetleaf [13, 18] | Plant response rating, Crabgrass, Large [15, 32]
0: Plant response rating, Barnyardgrass [2, 22] | Plant response rating, Barnyardgrass [2, 27] | Plant response rating, Barnyardgrass [2, 28] | Plant response rating, Barnyardgrass [2, 29] | Plant response rating, Sandbur [3, 25] | Plant response rating, Sandbur [3, 27] | Plant response rating, Goosegrass [4, 18] | Plant response rating, Foxtail, Giant [5, 18] | Plant response rating, Corn (corn (Zea mays); [22]) | Plant response rating, Corn (corn (Zea mays); [25]) | Plant response rating, Corn (corn (Zea mays); [27]) | Plant response rating, Corn (corn (Zea mays); [28]) | Plant response rating, Corn (corn (Zea mays); [29]) | Plant response rating, Corn (corn (Zea mays); [30]) | Plant response rating, Surinam Grass [9, 18] | Plant response rating, Dayflower, VA [11, 21] | Plant response rating, Dayflower, VA [11, 25] | Plant response rating, Dayflower, VA [11, 26] | Plant response rating, Dayflower, VA [11, 27] | Plant response rating, Dayflower, VA [11, 28] | Plant response rating, Arrowleaf Sida [14, 27] | Plant response rating, Arrowleaf Sida [14, 28] | Plant response rating, Crabgrass, Large [15, 18] | Plant response rating, Crabgrass, Large [15, 19]
75: Plant response rating, Ragweed [1, 16] | Plant response rating, Panicum, Fall [7, 21] | Plant response rating, Panicum, Fall [7, 26] | Plant response rating, Panicum, Fall [7, 28] | Plant response rating, Surinam Grass [9, 20] | Plant response rating, Pigweed, Palmer [10, 23] | Plant response rating, Velvetleaf [13, 16] | Plant response rating, Velvetleaf [13, 19] | Plant response rating, Arrowleaf Sida [14, 29]
10: Plant response rating, Barnyardgrass [2, 25] | Plant response rating, Sandbur [3, 26] | Plant response rating, Sandbur [3, 28]
30: Plant response rating, Sandbur [3, 21] | Plant response rating, Sandbur [3, 23] | Plant response rating, Sandbur [3, 24] | Plant response rating, Dayflower, VA [11, 23] | Plant response rating, Arrowleaf Sida [14, 25]
25: Plant response rating, Barnyardgrass [2, 23] | Plant response rating, Goosegrass [4, 20] | Plant response rating, Surinam Grass [9, 19] | Plant response rating, Dayflower, VA [11, 30]
85: Plant response rating, Panicum, Fall [7, 24]
15: Plant response rating, Barnyardgrass [2, 26] | Plant response rating, Goosegrass [4, 19] | Plant response rating, Dayflower, VA [11, 29]
95: Plant response rating, Foxtail, Giant [5, 32] | Plant response rating, Panicum, Fall [7, 31] | Plant response rating, Nightshade [8, 16]
100: Plant response rating, Ragweed [1, 17] | Plant response rating, Ragweed [1, 20] | Plant response rating, Lambsquarters [6, 32] | Plant response rating, Lambsquarters [6, 20] | Plant response rating, Panicum, Fall [7, 30] | Plant response rating, Nightshade [8, 17] | Plant response rating, Nightshade [8, 20] | Plant response rating, Pigweed, Palmer [10, 22] | Plant response rating, Pigweed, Palmer [10, 31] | Plant response rating, Pigweed, Palmer [10, 30] | Plant response rating, Morningglory [12, 20]
65: Plant response rating, Lambsquarters [6, 18] | Plant response rating, Lambsquarters [6, 19] | Plant response rating, Panicum, Fall [7, 27] | Plant response rating, Arrowleaf Sida [14, 22] | Plant response rating, Crabgrass, Large [15, 20]
80: Plant response rating, Panicum, Fall [7, 23] | Plant response rating, Nightshade [8, 18] | Plant response rating, Surinam Grass [9, 17] | Plant response rating, Arrowleaf Sida [14, 24] | Plant response rating, Arrowleaf Sida [14, 30]
70: Plant response rating, Ragweed [1, 19] | Plant response rating, Sandbur [3, 31] | Plant response rating, Sandbur [3, 30] | Plant response rating, Panicum, Fall [7, 25] | Plant response rating, Pigweed, Palmer [10, 25] | Plant response rating, Arrowleaf Sida [14, 21] | Plant response rating, Arrowleaf Sida [14, 23]
60: Plant response rating, Morningglory [12, 19]
5: Plant response rating, Goosegrass [4, 16] | Plant response rating, Corn (corn (Zea mays); [21]) | Plant response rating, Corn (corn (Zea mays); [23]) | Plant response rating, Corn (corn (Zea mays); [24]) | Plant response rating, Corn (corn (Zea mays); [26])
20: Plant response rating, Barnyardgrass [2, 21] | Plant response rating, Barnyardgrass [2, 30] | Plant response rating, Sandbur [3, 22] | Plant response rating, Pigweed, Palmer [10, 26] | Plant response rating, Pigweed, Palmer [10, 27] | Plant response rating, Dayflower, VA [11, 22] | Plant response rating, Morningglory [12, 18] | Plant response rating, Crabgrass, Large [15, 16]
